What was measured:
PSMA = target: T1, PSMA (Homo sapiens, UniProt Q04609); assay: In vitro binding signals of 68Ga labeled ligands in LNCaP tumor homogenates; settings: Ga-68 radiolabeled ligands
T1 construct: 100 μL of freshly harvested PSMA cells; endogenous in cells; host or cells: 'PSMA cells' in the method

[1] = Biodistribution of radiotracers in normal mice; format: in vivo, mouse; settings: for Biodistribution: Blood / Biodistribution: Bone / Biodistribution: Brain / Biodistribution: Heart / Biodistribution: Kidney / Biodistribution: Liver / Biodistribution: Lung / Biodistribution: Muscle / Biodistribution: Pancreas / Biodistribution: Skin / Biodistribution: Spleen: normal male mice
Procedure: Normal CD-1 male mice were injected via the tail vein with 35 μCi of [^68Ga] radiotracers (0.2 nmole of ligand). […] All organs were removed and blood was also collected. Each organ was weighed, and the tissue radioactivity was measured with an automated gamma counter (Wizard, Perkin Elmer). The % ID/g was calculated by comparison with samples of a standard dilution of the initial dose. All measurements were corrected for decay.

T1 sequence (Q04609 whole entry): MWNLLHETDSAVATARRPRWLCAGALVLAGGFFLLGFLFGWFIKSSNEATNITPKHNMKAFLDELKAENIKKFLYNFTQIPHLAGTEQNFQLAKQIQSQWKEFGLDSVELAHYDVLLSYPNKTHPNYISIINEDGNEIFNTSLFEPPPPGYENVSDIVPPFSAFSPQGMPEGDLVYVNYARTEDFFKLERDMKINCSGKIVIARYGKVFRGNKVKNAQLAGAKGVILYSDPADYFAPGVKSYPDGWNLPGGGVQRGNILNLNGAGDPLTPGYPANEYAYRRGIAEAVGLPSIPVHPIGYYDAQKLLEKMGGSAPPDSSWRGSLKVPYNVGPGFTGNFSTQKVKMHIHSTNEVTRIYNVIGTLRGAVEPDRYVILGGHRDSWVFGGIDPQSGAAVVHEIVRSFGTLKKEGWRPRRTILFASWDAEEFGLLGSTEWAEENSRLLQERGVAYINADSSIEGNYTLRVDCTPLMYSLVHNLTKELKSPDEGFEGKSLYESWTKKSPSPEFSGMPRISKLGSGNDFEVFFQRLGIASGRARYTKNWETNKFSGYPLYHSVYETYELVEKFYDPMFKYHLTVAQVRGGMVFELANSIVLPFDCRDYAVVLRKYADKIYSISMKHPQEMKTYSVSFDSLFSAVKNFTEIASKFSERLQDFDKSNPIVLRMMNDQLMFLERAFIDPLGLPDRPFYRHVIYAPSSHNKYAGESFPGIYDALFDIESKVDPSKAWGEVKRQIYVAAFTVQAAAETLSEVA

SMILES: O=C(O)CCc1ccc(O)c(CN(CCN(CC(=O)O)Cc2cc(CCC(=O)NCC(=O)N[C@@H](Cc3ccc(OCC(=O)N[C@@H](Cc4ccccc4)C(=O)NCCCC[C@H](NC(=O)N[C@@H](CCC(=O)O)C(=O)O)C(=O)O)cc3)C(=O)O)ccc2O)CC(=O)O)c1 [Compound 5b, (4S,11S,15S)-4-Benzyl-1-(4-((S)-2-carboxy-2-(2-(3-(3-(((2-((5-(2-carboxyethyl)-2-hydroxybenzyl)(carboxymethyl)amino)ethyl)(carboxymethyl)amino)methyl)-4-hydroxyphenyl)propanamido)acetamido)ethyl)phenoxy)-2,5,13-trioxo-3,6,12,14-tetraazaheptadecane-11,15,17-tricarboxylic acid.]
- Specific binding (SB) SB = TB − NSB (PSMA): 10.54
- Total binding (TB) (PSMA; 37° C. 60 min): 10.73
- Nonspecific binding (NSB) (PSMA; with 1a (PSMA11) 10 μM): 0.18

SMILES: O=C(O)CC[C@H](NC(=O)N[C@@H](CCCCNC(=O)CCCCCNC(=O)CCc1ccc(O)c(CN(CCN(CC(=O)O)Cc2cc(CCC(=O)NCCNC(=O)CN3CCN4CCN5CCN(CC3)CC(=O)[O][177Lu]([O]C(=O)C4)[O]C(=O)C5)ccc2O)CC(=O)O)c1)C(=O)O)C(=O)O [[^177Lu]1g]
- Biodistribution: Blood ([1]; 0.5 hr): 0.64 ± 0.22 % dose/g
- Biodistribution: Bone ([1]; 0.5 hr): 0.22 ± 0.05 % dose/g
- Biodistribution: Brain ([1]; 0.5 hr): 0.03 ± 0.01 % dose/g
- Biodistribution: Heart ([1]; 0.5 hr): 0.28 ± 0.09 % dose/g
- Biodistribution: Kidney ([1]; 0.5 hr): 40.6 ± 10.5 % dose/g
- Biodistribution: Liver ([1]; 0.5 hr): 0.23 ± 0.02 % dose/g
- Biodistribution: Lung ([1]; 0.5 hr): 0.80 ± 0.38 % dose/g
- Biodistribution: Muscle ([1]; 0.5 hr): 0.27 ± 0.07 % dose/g
- Biodistribution: Pancreas ([1]; 0.5 hr): 0.40 ± 0.07 % dose/g
- Biodistribution: Skin ([1]; 0.5 hr): 0.56 ± 0.12 % dose/g
- Biodistribution: Spleen ([1]; 0.5 hr): 0.78 ± 0.37 % dose/g
- Biodistribution: Blood ([1]; 1 hr): 0.15 ± 0.05 % dose/g
- Biodistribution: Bone ([1]; 1 hr): 0.11 ± 0.01 % dose/g
- Biodistribution: Brain ([1]; 1 hr): 0.01 ± 0.00 % dose/g
- Biodistribution: Heart ([1]; 1 hr): 0.14 ± 0.01 % dose/g
- Biodistribution: Kidney ([1]; 1 hr): 30.3 ± 3.50 % dose/g
- Biodistribution: Liver ([1]; 1 hr): 0.12 ± 0.02 % dose/g
- Biodistribution: Lung ([1]; 1 hr): 0.45 ± 0.13 % dose/g
- Biodistribution: Muscle ([1]; 1 hr): 0.11 ± 0.03 % dose/g
- Biodistribution: Pancreas ([1]; 1 hr): 0.32 ± 0.183 % dose/g
- Biodistribution: Skin ([1]; 1 hr): 0.21 ± 0.04 % dose/g
- Biodistribution: Spleen ([1]; 1 hr): 0.92 ± 0.24 % dose/g
- Biodistribution: Blood ([1]; 6 hr): 0.01 ± 0.00 % dose/g
- Biodistribution: Bone ([1]; 6 hr): 0.12 ± 0.01 % dose/g
- Biodistribution: Brain ([1]; 6 hr): 0.01 ± 0.00 % dose/g
- Biodistribution: Heart ([1]; 6 hr): 0.02 ± 0.01 % dose/g
- Biodistribution: Kidney ([1]; 6 hr): 17.8 ± 4.07 % dose/g
- Biodistribution: Liver ([1]; 6 hr): 0.07 ± 0.01 % dose/g
- Biodistribution: Lung ([1]; 6 hr): 0.11 ± 0.00 % dose/g
- Biodistribution: Muscle ([1]; 6 hr): 0.03 ± 0.00 % dose/g
- Biodistribution: Pancreas ([1]; 6 hr): 0.08 ± 0.03 % dose/g
- Biodistribution: Skin ([1]; 6 hr): 0.06 ± 0.00 % dose/g
- Biodistribution: Spleen ([1]; 6 hr): 0.28 ± 0.08 % dose/g
- Biodistribution: Blood ([1]; 24 hr): 0.01 ± 0.00 % dose/g
- Biodistribution: Bone ([1]; 24 hr): 0.12 ± 0.01 % dose/g
- Biodistribution: Brain ([1]; 24 hr): 0.01 ± 0.00 % dose/g
- Biodistribution: Heart ([1]; 24 hr): 0.01 ± 0.00 % dose/g
- Biodistribution: Kidney ([1]; 24 hr): 4.02 ± 1.34 % dose/g
- Biodistribution: Liver ([1]; 24 hr): 0.03 ± 0.00 % dose/g
- Biodistribution: Lung ([1]; 24 hr): 0.03 ± 0.01 % dose/g
- Biodistribution: Muscle ([1]; 24 hr): 0.01 ± 0.00 % dose/g
- Biodistribution: Pancreas ([1]; 24 hr): 0.02 ± 0.01 % dose/g
- Biodistribution: Skin ([1]; 24 hr): 0.04 ± 0.01 % dose/g
- Biodistribution: Spleen ([1]; 24 hr): 0.04 ± 0.00 % dose/g
- Initial uptakes in the kidneys, in words ([1]; normal mice): comparable to that of [^68Ga]1g

— US10688200B2, “Urea-based prostate specific membrane antigen (PSMA) inhibitors for imaging and therapy” (Five Eleven Pharma Inc., priority 2015, dated 2020)
